Test results as given in paper PMC11436104 (Toxins, 2024).
Values joined by “and” are separate entries in the source; they are usually repeats but may differ in a detail not shown here. Equal values may be shown once. Read-outs that look alike come from different tables or passages of the source. *1 amine or outer side, *2 acyl side, *3 side chain or, on linkers, in order; H or OH if unused. Where a SMILES comes first, the peptide text is derived from it. Bridges are numbered along the chain shown (N, C = ends). [ ]: non-standard residue; d: D form. Adda = CO[C@@H](Cc1ccccc1)[C@@H](C)/C=C(C)/C=C/[C@H](N[*:1])[C@H](C)C(=O)[*:2]; dAsp(3S-Me) = C[C@H](C(=O)[*:3])[C@@H](N[*:1])C(=O)[*:2]; d(γGlu) = O=C(O)[C@@H](CCC(=O)[*:2])N[*:1]; hTyr = N[C@@H](CCc1ccc(O)cc1)C(=O)O; NMeA = CN[C@@H](C)C(=O)O; NMeDha = C=C(NC)C(=O)O; CO = O=C([*:1])[*:2]

What was measured:
[1] = molecular target: T1, Ser/Thr protein phosphatase type-1 (PP1; α isoform catalytic subunit) (Oryctolagus cuniculus, UniProt P62139); experiment: Colorimetric protein phosphatase inhibition assay, p-nitrophenyl phosphate substrate; assay type: biochemical, rabbit
T1 construct: purchased Sigma 539493; host or cells: Escherichia coli
Protocol: (§1) The inhibition of Ser/Thr protein phosphatases by the CCPs was measured using the colorimetric inhibition assay described by An and Carmichael and Gkelis et al., with some modifications. […] Enzymes, PP1 and PP2A, were diluted in reaction buffer #1 (50 mM Tris-HCl, 1.0 g/L bovine serum albumin, 1.0 mM MnCl2, 2.0 mM dithiothreitol, pH 7.4), and p-nitrophenyl phosphate was prepared in substrate buffer (0.1 M glycine, pH 10.4, 1 mM MgCl2, 1 mM ZnCl2). The assay was performed by the addition of each CCP (as a potential inhibitor; final concentrations, 0.1, 1, 10, and 100 µM) to the enzyme solution (i.e., PP1 and PP2A; final concentrations, 1 U/well and 0.01 U/well, respectively, where 1 U hydrolyzes 1 nmole of substrate per minute at pH 7.4 at 30 °C). After a few seconds of gentle shaking, the microplate was kept at room temperature for 5 min, followed by the addition of reaction buffer #2 (50 mM Tris-HCl, 0.5 g/L bovine serum albumin, 0.2 mM MnCl2, 20 mM MgCl2, and pH 8.1) for PP1, or reaction buffer #1 for PP2A. The reactions were started by the addition of p-nitrophenyl phosphate (final concentrations, 15 mM for PP1 and 10 mM for PP2A) and were carried out for 120 min at 37 °C. The hydrolysis of p-nitrophenyl phosphate to […] was recorded at 405 nm using a microplate reader (Tecan, Austria). The inhibition percentages (X) were calculated from the absorbances of the samples after incubation for 30 min, as according to Equation (1):X (%) = (APP − AS)/APP × 100,(1) where APP is the absorbance of the control sample (i.e., enzyme only), and AS is the absorbance of the test sample (i.e., enzyme with potential inhibitor). […] All measurements were repeated a minimum of three independent times, with five technical replicates per experiment. IC50 values are expressed as means ± SD.

[2] = molecular target: T2, Ser/Thr protein phosphatase type-2A (PP2A) (Bos taurus, UniProt P67774); experiment: as above; assay type: biochemical, bovine
T2 construct: PP2A; from bovine kidney; purchased Sigma P1868; host or cells: bovine kidney (tissue-purified)
Protocol: as §1

[3] = tested on: NES; experiment: Gene expression by quantitative real-time PCR in NHA; assay type: cell-based, human
Protocol: (§2) Cells were seeded onto 6-well plates, left to attach for 16 h, and treated with each non-hCCP separately (0.1–10 µM) and the hepatotoxic MC-LR (0.01–1 µM) for 24 h at 37 °C in the CO2 incubator. The total RNA from the cells (0.5–1.0 × 10^6 cells) was isolated using the TRIzol reagent (Invitrogen), and the cDNA was synthesized using 1 μg total RNA with cDNA high-capacity archive kits (Applied Biosystems, Foster City, CA, USA), according to the manufacturer’s protocol.
(§3) The expression levels of TUBA1A, ACTB, NES, and GFAP were quantified using quantitative real-time PCR (ABI 7900 HT Sequence Detection System; Applied Biosystems). TaqMan Universal PCR Master Mix and the following TaqMan Gene Expression Assays were used: TUBA1A: tubulin, alpha 1a, Hs00362387_m1; ACTB: actin, beta, Hs99999903_m1; NES, nestin, Hs00707120_s1; and GFAP, glial fibrillary acidic protein, and Hs00157674_m1 (all from Applied Biosystems). Amplification of a glyceraldehyde 3-phosphate dehydrogenase probe GAPDH (Human Endogenous Controls, Cat. # 4310884E; Applied Biosystems) was performed as an internal control. The conditions for the quantitative real-time PCR were as follows: 50 °C for 2 min, 95 °C for 10 min, 40 cycles of 95 °C for 15 s, and 60 °C for 1 min.
(§4) The data obtained from the TaqMan Gene Expression Assays were analyzed using the ΔΔCt algorithm. Two replicates per concentration and three independent experiments were performed. The statistical significance between the controls and the treated groups was determined using two-tailed Student’s t-tests, where p < 0.05 was statistically significant. In addition, the relative expression was normalized to the housekeeping gene GAPDH (relative quantification), with at least three sample concentrations used for each gene in both untreated cell lines.

[4] = tested on: GFAP; experiment: as above; assay type: cell-based, human
Protocol: as §2, §3, §4

[5] = tested on: TUBA1A; experiment: as above; assay type: cell-based, human
Protocol: as §2, §3, §4

[6] = tested on: ACTB; experiment: as above; assay type: cell-based, human
Protocol: as §2, §3, §4

[7] = means ± SD, p-nitrophenyl phosphate 15 mM
[8] = means ± SD, p-nitrophenyl phosphate 10 mM
[9] = NHA, 0.1 µM CCP, 24 h, relative to non-treated control
[10] = NHA, 1 µM CCP, 24 h, relative to non-treated control
[11] = NHA, 10 µM CCP, 24 h, relative to non-treated control

T2 sequence (P67774 whole entry): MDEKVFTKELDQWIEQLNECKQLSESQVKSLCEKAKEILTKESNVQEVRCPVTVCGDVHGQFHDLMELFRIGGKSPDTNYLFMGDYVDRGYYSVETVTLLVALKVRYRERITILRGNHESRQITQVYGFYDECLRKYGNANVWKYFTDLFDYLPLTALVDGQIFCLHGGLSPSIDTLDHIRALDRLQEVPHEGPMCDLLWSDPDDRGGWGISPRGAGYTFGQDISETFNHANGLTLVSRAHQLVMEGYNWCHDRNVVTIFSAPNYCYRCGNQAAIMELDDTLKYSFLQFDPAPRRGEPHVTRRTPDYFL
T1 sequence (P62139 whole entry, canonical isoform): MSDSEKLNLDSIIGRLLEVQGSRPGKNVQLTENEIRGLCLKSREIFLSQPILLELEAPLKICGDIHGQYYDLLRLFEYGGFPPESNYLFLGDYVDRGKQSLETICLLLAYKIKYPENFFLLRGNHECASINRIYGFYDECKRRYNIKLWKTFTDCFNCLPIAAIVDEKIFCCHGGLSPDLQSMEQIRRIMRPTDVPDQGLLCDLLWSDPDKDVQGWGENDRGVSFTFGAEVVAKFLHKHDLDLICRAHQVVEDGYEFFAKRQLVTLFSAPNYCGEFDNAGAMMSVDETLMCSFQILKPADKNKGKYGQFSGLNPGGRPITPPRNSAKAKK

SMILES: C=C1C(=O)N[C@H](C)C(=O)N[C@@H](CC(C)C)C(=O)N[C@@H](C(=O)O)[C@H](C)C(=O)N[C@@H](CCCNC(=N)N)C(=O)N[C@@H](/C=C/C(C)=C/[C@H](C)[C@H](Cc2ccccc2)OC)[C@H](C)C(=O)N[C@@H](C(=O)O)CCC(=O)N1C [MC-LR, Microcystin-LR, reference compound] (R[Adda][d(γGlu)][NMeDha][dA]L[dAsp(3S-Me)]-OH; lactam N-7)
- IC50 [1]: 0.005 ± 0.0016 µM
- IC50 [2]: 4.8e-05 ± 1e-05 µM
- Changes in gene expression of NES [3]: 0.917 ± 0.067 and 1.266 ± 0.250
- Changes in gene expression of GFAP [4]: 1.395 ± 0.312 and 1.453 ± 0.279
- Changes in gene expression of TUBA1A [5]: 0.957 ± 0.046 and 0.941 ± 0.025
- Changes in gene expression of ACTB [6]: 1.866 ± 0.844 and 1.071 ± 0.437

SMILES: CC[C@H](C)[C@@H]1NC(=O)[C@H](NC(=O)N[C@@H](CCCNC(=N)N)C(=O)O)CCCCNC(=O)[C@H](Cc2ccccc2)NC(=O)[C@H](C)N(C)C(=O)[C@H](CCc2ccc(O)cc2)NC1=O [anabaenopeptin F] ({Arg-CO}-[dK]I[hTyr][NMeA]F; lactam 1-C)
- IC50 [1, 7]: 28.2 ± 3.4 µM
- IC50 [2, 8]: 1 ± 0.2 µM
- Changes in gene expression of NES [3, 9]: 1.345 ± 0.205
- Changes in gene expression of NES [3, 10]: 1.449 ± 0.171
- Changes in gene expression of NES [3, 11]: 1.381 ± 0.173
- Changes in gene expression of GFAP [4, 9]: 1.326 ± 0.507
- Changes in gene expression of GFAP [4, 10]: 0.846 ± 0.211
- Changes in gene expression of GFAP [4, 11]: 1.167 ± 0.250
- Changes in gene expression of TUBA1A [5, 9]: 0.941 ± 0.186
- Changes in gene expression of TUBA1A [5, 10]: 1.144 ± 0.291
- Changes in gene expression of TUBA1A [5, 11]: 0.826 ± 0.036
- Changes in gene expression of ACTB [6, 9]: 0.824 ± 0.227
- Changes in gene expression of ACTB [6, 10]: 1.121 ± 0.167
- Changes in gene expression of ACTB [6, 11]: 0.890 ± 0.184

SMILES: CC[C@H](C)[C@@H]1NC(=O)[C@H](Cc2ccc(OC)cc2)N(C)C(=O)[C@H]([C@@H](C)O)N2C(=O)[C@H](CC[C@H]2O)NC(=O)[C@H](CC(C)C)NC(=O)[C@@H](NC(=O)[C@H](CCC(N)=O)NC(=O)[C@H](CCc2ccc(O)cc2)NC(=O)[C@@H](O)CO)[C@@H](C)OC1=O
- IC50 [1, 7]: 132 ± 87.5 µM
- IC50 [2, 8]: 18.2 ± 15.7 µM
- Changes in gene expression of NES [3, 9]: 1.262 ± 0.077
- Changes in gene expression of NES [3, 10]: 1.203 ± 0.196
- Changes in gene expression of NES [3, 11]: 1.370 ± 0.208
- Changes in gene expression of GFAP [4, 9]: 1.051 ± 0.351
- Changes in gene expression of GFAP [4, 10]: 0.947 ± 0.101
- Changes in gene expression of GFAP [4, 11]: 1.119 ± 0.240
- Changes in gene expression of TUBA1A [5, 9]: 0.940 ± 0.162
- Changes in gene expression of TUBA1A [5, 10]: 0.824 ± 0.128
- Changes in gene expression of TUBA1A [5, 11]: 1.000 ± 0.141
- Changes in gene expression of ACTB [6, 9]: 0.949 ± 0.140
- Changes in gene expression of ACTB [6, 10]: 0.988 ± 0.147
- Changes in gene expression of ACTB [6, 11]: 1.162 ± 0.251

SMILES: CC(C)[C@@H]1NC(=O)[C@H](NC(=O)N[C@@H](CCCNC(=N)N)C(=O)O)CCCCNC(=O)[C@H](Cc2ccccc2)NC(=O)[C@H](C)N(C)C(=O)[C@H](CCc2ccc(O)cc2)NC1=O [anabaenopeptin B] ({Arg-CO}-[dK]V[hTyr][NMeA]F; lactam 1-C)
- IC50 [1, 7]: 9.5 ± 0.9 µM
- IC50 [2, 8]: 12.3 ± 6.1 µM
- Changes in gene expression of NES [3, 9]: 1.361 ± 0.291
- Changes in gene expression of NES [3, 10]: 1.221 ± 0.338
- Changes in gene expression of NES [3, 11]: 1.388 ± 0.313
- Changes in gene expression of GFAP [4, 9]: 1.053 ± 0.124
- Changes in gene expression of GFAP [4, 10]: 1.434 ± 0.180
- Changes in gene expression of GFAP [4, 11]: 0.918 ± 0.204
- Changes in gene expression of TUBA1A [5, 9]: 1.082 ± 0.219
- Changes in gene expression of TUBA1A [5, 10]: 0.807 ± 0.100
- Changes in gene expression of TUBA1A [5, 11]: 0.895 ± 0.119
- Changes in gene expression of ACTB [6, 9]: 1.175 ± 0.386
- Changes in gene expression of ACTB [6, 10]: 0.935 ± 0.157
- Changes in gene expression of ACTB [6, 11]: 0.934 ± 0.166
